# Results: patent publication US7267975B2, “Methods and compositions relating to insect repellents from a novel endophytic fungus” (Montana State University, priority 2002, dated 2007)
# Test system: adult wheat stem sawflies (C. cinctus)
# Assay: Y-tube olfactometry insect repellency test
# Assay type: in vivo
# Details: for Ratio: preference of insect to non-naphthalene side (control) of Y-tube vs. naphthalene source side of tube: control acetone on paper disk, 30 insects
# Experimental: FIG. 1. A highly schematic drawing of the olfactory Y-tube used to measure insect behavior in the presence of various naphthalene sources. A 6.3 volt light source is placed at the base of the Y-tube as illustrated in the drawing.
# In controlled, replicated experiments, both authentic naphthalene as well as M. vitigenus, were used as odor sources in Y-tube olfactometry tests (FIG. 1). […] Thirty successful trials using naphthalene test solution A (with a naphthalene release rate of 12 ng hr^−1) were completed (Table 1). Out of 30 insects, 24 responded by moving away from the naphthalene source. A second set of 30 successful trials were completed using naphthalene test solution B. Out of 30 insects, 21 were repelled by the naphthalene source. Finally, sixty successful trials were preformed using 0.0785 cm^2 fungal plugs (2-3 weeks old) of M. vitigenus as the odor source. Out of the 60 insects, 49 traveled away from the fungus and its volatiles. The results of both test concentrations of authentic naphthalene were statistically different from the acetone control test papers (Table 1). Insect behaviour in tests involving agar plugs containing M. vitigenus was also statistically different (a=0.001) from the controls (Table 1). […] Table 1. Influence of authentic naphthalene and M. vitigenus volatiles, containing mostly naphthalene, on the behavior of adult wheat stem sawflies (C. cinctus). Bioassay tests were conducted in Y-olfactory tubes.
smiles,measurement,setting,value
"c1ccc2ccccc2c1 [Authentic naphthalene, naphthalene]",Insect behaviour (orientation) in the presence of the odor source,"many of the insects tested, Y-tube",more disoriented than usual
same,Number of insects moving away from the naphthalene source,"out of 30 insects, naphthalene test solution A (release rate 12 ng hr^-1)",24
same,Number of insects repelled by the naphthalene source,"out of 30 insects, naphthalene test solution B",21
same,Ratio: preference of insect to non-naphthalene side (control) of Y-tube vs. naphthalene source side of tube,"test concentration (A), naphthalene release rate 12 ng hr^-1",24/6
same,Ratio: preference of insect to non-naphthalene side (control) of Y-tube vs. naphthalene source side of tube,test concentration (B),21/9
